In PubChem BioAssay AID2125 (NMMLSC, 2009) one finds percent response (growth) and EC50 data, which are given here for two compounds.

SMILES strings stand for the structures. pEC50: −log10 of the molar value. Activity calls are given as the source filed them.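 How the source made its calls: active means combined score above 50, rising as EC50 falls below 10 µM and growth at top dose drops; inactive means the rest.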 Peptide text beside a SMILES is read from it. * marks the point of attachment. Cbz = O=C(OCc1ccccc1)*

Holding throughout (assay): yeast strain panel proliferation effects – secondary panel, OD600, 26S proteasome disassembly project, profiling panel (AID 2125)
Details in all cases: S. cerevisiae strain panel, growth OD600, 6-8 h

Experiment [1] has as its system YE3965.
Experiment [2] deals with YE3962.
In experiment [3] the test system is YE4006.
Experiment [4] has as its system YE3963.
Experiment [5] concerns YE4005.
Experiment [6] relates to YE3957.
The subject of experiment [7] is YE3955.
Experiment [8] relates to YE4012.
The subject of experiment [9] is YE4010.
[10] abbreviates: at 100 µM, active compounds read low.

`CC(=O)N1C(=O)C(=C2C=C(C)OC(C)=C2)c2ccccc21`: the percent response (growth) in experiment [1] (setting [10]) was 34.3% (inactive); in experiment [4] (setting [10]), 63.5% (inactive); in [5] (setting [10]), 70.5% (inactive); in experiment [6] (setting [10]) it was 100% (inactive); in experiment [7] (setting [10]), 70.6% (inactive); in experiment [8] (setting [10]), 96.9% (inactive). Further, the values for the negative-log EC50 (pEC50) in experiment [2] and in [9] were 6.80 and 6.89, respectively. Further, the EC50 in experiment [3] is 36 µM (inactive).
With `CC(C)C[C@@H](C=O)NC(=O)[C@H](CC(C)C)NC(=O)[C@H](CC(C)C)NC(=O)OCc1ccccc1` (Cbz-Leu-Leu-Leu-aldehyde), the negative logarithm of the EC50 (pEC50) in experiment [1] was 5.98; in experiment [4] it was 6.03; in [5], 5.91; in experiment [6], 5.54; in [7], 6.05. The percent response (growth) is 47.5% (inactive) in [2] (setting [10]), 63.7% (inactive) in [3] (setting [10]) and 75.5% (inactive) in experiment [9] (setting [10]). Moreover, the EC50 in experiment [8] was 1550 µM (inactive).
